Assay results from patent publication EP4578857A1, “CRYPTOLEPINE SALT DERIVATIVE, AND PREPARATION METHOD THEREFOR AND USE THEREOF” (Nankai University, priority 2023, dated 2025).
Read-outs that look alike come from different tables or passages of the source.

Legend:
Format in all cases: in vivo
[1] = system: tobacco Mosaic virus (TMV); assay: Anti-TMV activity: living passivation activity test; details: for inhibition at 500 µg/mL: Tobacco mosaic virus, read-out: Relative inhibition rate (%) Living passivation activity test
Protocol: (§1) Determination of anti-tobacco Mosaic virus (TMV) activity by the following procedure:
(§2) The virus crude extract was centrifuged with polyethylene glycol at twice and refrigerated at 4°C for use. The absorbance of 260nm wavelength was determined by ultraviolet spectrophotometer, and the virus concentration was calculated according to the formula. Virus concentration(mg/ml) = (A260 × dilution ratio)(/E)^0.10 1cm^260nm . [formula]
(§3) After weighing, cryptolepine salt derivative, ningnanmycin and the original drug of ribavirin were dissolved in DMF to obtain 1×10^5µg/mL mother solution, and then diluted to the required concentration with 1‰ Tween 80 aqueous solution.
Select the 3-5 leaf stage of tobacco Xanthi nc with uniform growth, mix the test sample agent with the same volume of virus juice to passivate for 30min, friction inoculation, virus concentration 20µg/mL, the leaf was washed with running water after inoculation, repeat 3 times, set 1‰ Tween 80 aqueous solution as control. 3 days later, the number of disease spots was calculated. [formula]
Anti-tobacco Mosaic virus passivation activity test of all compounds was at a treatment dose of 500µg/mL. The positive control was the commercial anti-plant virus agent viriazole.

[2] = system: tobacco Mosaic virus (TMV); assay: Anti-TMV activity: live protection function; details: for antiTMV activity / TMV activity: 500µg/mL, Table 4 (all three modes); for antiTMV activity: compared with commercial Ningnanmycin; for TMV activity: compared with ribavirin; for inhibition at 500 µg/mL: Tobacco mosaic virus, read-out: Relative inhibition rate (%) Live protection function
Protocol: as §1, §2, §3
Select the 3-5 leaf stage of tobacco Xanthi nc with uniform growth, spray the whole plant, repeat each treatment 3 times, and set 1‰ Tween80 aqueous solution as control. 24h later, the leaf surface was coated with emery (500 mesh), the disease venom was dipped with a brush, and the whole leaf surface was gently rubbed twice along the direction of the branch pulse by using the brush, the leaf was supported by palm of hand, the virus concentration was 10µg/mL, and the leaf was washed by water after inoculation. After 3 days, the number of disease spots was recorded and the prevnetion and control effect was calculated.

[3] = system: tobacco Mosaic virus (TMV); assay: Anti-TMV activity: live treatment effect; details: for inhibition at 500 µg/mL: Tobacco mosaic virus, 72 h, read-out: Relative inhibition rate (%) Live treatment effect
Protocol: as §1, §2, §3
Select the 3-5 leaf stage of tobacco Xanthi nc with uniform growth, use a brush to vaccinate the virus in the whole leaf, the virus concentration is 10µg/mL, and the leaf was washed with running water after inoculation. After the leaves were dried, the whole plant was sprayed with test sample, repeated 3 times every treatment, and 1‰ Tween 80 aqueous solution was set as control. After 3 days, the number of disease spots was recorded and the prevnetion and control effect was calculated.

[4] = system: rice sheath blight strains; assay: Bactericidal activity test: resistance to rice sheath blight (live pot test); details: for pest or weed control at 400 µg/mL: Oryza sativa, 144 h
Protocol: Bactericidal activity test, the determination procedure is as follows: Test of resistance to rice sheath blight: Select uniformly growing rice seedlings and spray them on the leaves at the set concentration, set a water sprayring group as blank control, every treatment was repeated twice. After 24h, the rice seedlings were inoculated with rice sheath blight strains and placed at room temperature (25±4°C) for normal management after inoculation. The prevention and control effect was investigated by visual inspection 6 days after inoculation.

[5] = read-out: Resistance to rice sheath blight (%)/400mg/L
[6] = 400mg/L leaf spray on rice seedlings, inoculated after 24h, visual inspection 6 days after inoculation, read-out: Resistance to rice sheath blight (%)/400mg/L
[7] = live pot test, summary of Table 5 (400mg/L), read-out: bactericidal activity against rice sheath blight
[8] = read-out: bactericidal activity against rice sheath blight
[9] = Treatment dose 500 mg/L, sample mixed with virus juice for 30min, then inoculated on tobacco Xanthi nc, virus 20µg/mL, 3 days
[10] = Treatment dose 500 mg/L, tobacco Xanthi nc sprayed 24h before inoculation, virus 10µg/mL, disease spots counted after 3 days
[11] = Treatment dose 500 mg/L, tobacco Xanthi nc inoculated (virus 10µg/mL), then sprayed, disease spots counted after 3 days
[12] = 400mg/L leaf spray on rice seedlings, inoculated after 24h, visual inspection 6 days after inoculation

| Structure (SMILES) | inhibition at 500 µg/mL [1] | TMV activity [2] | inhibition at 500 µg/mL [2] | inhibition at 500 µg/mL [3] | pest or weed control at 400 µg/mL [4, 5] | pest or weed control at 400 µg/mL [4, 6] | further results |
| --- | --- | --- | --- | --- | --- | --- | --- |
| Cc1ccc(S(=O)(=O)n2c3ccccc3c3c2cc2cc(Br)ccc2[n+]3C)cc1 [Example 13] | 46.1 ± 3.9% | better TMV activity than the ribavirin | 50.8 ± 1% | 52 ± 2.4% | 35 ± 5% |  | antiTMV activity [2]: comparable to that of commercial Ningnanmycin |
| C[n+]1c2ccccc2c(NCCCC2CCCCC2)c2[nH]c3ccccc3c21 [Example 31] | 30.5 ± 0.2% |  | 29.5 ± 1.3% | 28.9 ± 1.1% |  | 25 ± 5% |  |
| C[n+]1c2ccccc2c(NCCCCN)c2[nH]c3ccccc3c21 [Example 34] | 41.2 ± 4.6% | better TMV activity than the ribavirin | 50.3 ± 2.1% | 43.9 ± 2% |  | 20% | antiTMV activity [2]: comparable to that of commercial Ningnanmycin |
| C[n+]1c2ccccc2c(NCCCN2CCCCC2)c2[nH]c3ccccc3c21 [Example 47] | 35.7 ± 0.3% |  | 36.4 ± 2.8% | 33.3 ± 2% |  | 45 ± 5% | pest or weed control at 400 µg/mL [4, 7]: > 50% |
| C[n+]1c2ccccc2c(NCCN)c2[nH]c3ccccc3c21 [Example 32] | 28.7 ± 2.1% |  | 25.1 ± 4.3% | 30.1 ± 0.4% |  | 30% |  |
| CN(C)CC(C)(C)CNc1c2ccccc2[n+](C)c2c1[nH]c1ccccc12 [Example 39] | 28.9 ± 2.1% |  | 25.4 ± 3.8% | 30.1 ± 0.2% |  | 25 ± 5% |  |
| Cc1ccc(S(=O)(=O)n2c3ccc(C)cc3c3c2cc2ccccc2[n+]3C)cc1 [Example 2] | 25.3 ± 2.3% |  | 26.5 ± 3% | 20.5 ± 0.9% | 40% |  |  |
| CC(C)CCNc1c2ccccc2[n+](C)c2c1[nH]c1ccccc12 [Example 26] | 37 ± 3% | better TMV activity than the ribavirin | 43.1 ± 3.4% | 45.4 ± 1.9% |  | 35 ± 5% |  |
| COc1ccc2c(c1)cc1c(c3ccccc3n1S(=O)(=O)c1ccc(C)cc1)[n+]2C [Example 10] | 19.1 ± 0.2% |  | 17 ± 1% | 10.2 ± 0.7% | 30% |  |  |
| Cc1ccc(S(=O)(=O)n2c3ccc(Br)cc3c3c2cc2ccccc2[n+]3C)cc1 [Example 6] | 41 ± 2.2% | better TMV activity than the ribavirin | 48.4 ± 4.7% | 45.2 ± 3.6% | 40% |  | antiTMV activity [2]: comparable to that of commercial Ningnanmycin |
| Cc1ccc(S(=O)(=O)n2c3ccccc3c3c2cc2ccc(Cl)cc2[n+]3C)cc1 [Example 17] | 33.1 ± 1.1% |  | 30.2 ± 1.7% | 23.5 ± 2.1% | 40% |  |  |
| COC(=O)c1ccc2c(c1)cc1c(c3ccccc3n1S(=O)(=O)c1ccc(C)cc1)[n+]2C [Example 15] | 20 ± 1% |  | 15.6 ± 0.4% | 22.1 ± 0.2% | 40% |  |  |
| CCCCC(CC)CNc1c2ccccc2[n+](C)c2c1[nH]c1ccccc12 (centres unmarked) [Example 27] | 47.9 ± 1.5% | better TMV activity than the ribavirin | 52.1 ± 2.8% | 46.3 ± 4.2% |  | 30% | antiTMV activity [2]: comparable to that of commercial Ningnanmycin |
| Cc1ccc(S(=O)(=O)n2c3ccccc3c3c2cc2cc(C(F)(F)F)ccc2[n+]3C)cc1 [Example 14] | 20.1 ± 1.5% |  | 15.3 ± 1.2% | 18.9 ± 1.2% | 60% |  | pest or weed control at 400 µg/mL [4, 8]: > 50% |
| Cc1ccc(S(=O)(=O)n2c3ccccc3c3c2cc2cc(C)ccc2[n+]3C)cc1 [Example 9] | 23.1 ± 0.9% |  | 23.8 ± 3.5% | 19.1 ± 0.1% | 70% |  | pest or weed control at 400 µg/mL [4, 8]: > 50% |
| CCCCCNc1c2ccccc2[n+](C)c2c1[nH]c1ccccc12 [Example 24] |  |  |  |  |  |  | Relative inhibition rate (%) Living passivation activity test [1, 9]: 35.2±1.0%; Relative inhibition rate (%) Live protection function [2, 10]: 36.9±3.7%; Relative inhibition rate (%) Live treatment effect [3, 11]: 30.3±0.8%; Resistance to rice sheath blight (%)/400mg/L [4, 12]: 30±0% |
| CCCCCCCCCCCCNc1c2ccccc2[n+](C)c2c1[nH]c1ccccc12 [Example 25] |  |  |  |  |  |  | Relative inhibition rate (%) Living passivation activity test [1, 9]: 35.1±0.1%; Relative inhibition rate (%) Live protection function [2, 10]: 27.3±3.0%; Relative inhibition rate (%) Live treatment effect [3, 11]: 22.1±1.1%; Resistance to rice sheath blight (%)/400mg/L [4, 12]: 20±0% |
| CCNCCNc1c2ccccc2[n+](C)c2c1[nH]c1ccccc12 [Example 37] | 33.6 ± 0.8% |  | 31.6 ± 3.2% | 20.7 ± 1.2% |  | 40% |  |
| C[n+]1c2ccccc2c(NCC2CC2)c2[nH]c3ccccc3c21 [Example 28] | 25.3 ± 1.2% |  | 20.5 ± 1.7% | 19.6 ± 0.2% |  | 60% | pest or weed control at 400 µg/mL [4, 7]: > 50% |
| Cc1ccc(S(=O)(=O)n2c3ccccc3c3c2cc2ccccc2[n+]3Cc2ccccc2)cc1 [Example 21] | 35.9 ± 4% | better TMV activity than the ribavirin | 41.4 ± 3.9% | 32.3 ± 1.8% | 40% |  |  |
| Cc1ccc(S(=O)(=O)n2c3ccccc3c3c2cc2ccccc2[n+]3CC2CCCCC2)cc1 [Example 19] | 44.2 ± 3.4% | better TMV activity than the ribavirin | 47 ± 2.8% | 42.4 ± 4.9% | 20% |  |  |
| CNCCCNc1c2ccccc2[n+](C)c2c1[nH]c1ccccc12 [Example 38] | 30.7 ± 1.2% |  | 35 ± 4.1% | 40.2 ± 1% |  | 30% |  |
| Cc1ccc(S(=O)(=O)n2c3ccccc3c3c2cc2ccccc2[n+]3C)cc1 [Example 1] | 18.5 ± 0.6% |  | 18.9 ± 2.6% | 20.3 ± 1.1% | 95 ± 5% |  | pest or weed control at 400 µg/mL [4, 8]: > 95% |
| Cn1c2c3cc(Br)ccc3nc-2cc2ccccc21 [Reference Example 1, 5-methyl-7-bromo 5H-indolo[3,2-b]quinoline, reference compound] |  |  |  |  |  | 0% | inhibition at 500 µg/mL [1, 9]: 10.2 ± 1.8%; inhibition at 500 µg/mL [2, 10]: 15.1 ± 2%; inhibition at 500 µg/mL [3, 11]: 10.5 ± 3%; bactericidal activity against rice sheath blight ([4]; live pot test, result in words, summary of Table 5 (400mg/L)): no activity |
| COc1ccc2c(c1)c1c(cc3ccccc3[n+]1C)n2S(=O)(=O)c1ccc(C)cc1 [Example 3] | 20.3 ± 0.2% |  | 18.1 ± 3.1% | 19.1 ± 0.1% | 35 ± 5% |  |  |
| CC(N)CNc1c2ccccc2[n+](C)c2c1[nH]c1ccccc12 (centres unmarked) [Example 35] | 44.3 ± 2.9% | better TMV activity than the ribavirin | 41 ± 2.4% | 48 ± 1.5% |  | 25 ± 5% |  |
